Measurements published in US11034658B2, “Pyridinyl pyrazoles as modulators of RORγT” (Janssen Pharmaceutica NV, priority 2018, dated 2021).
Marks after values point to notes of the source that are not given here.

Columns and labels:
[1] = target: full-length human RORγt (GAL4-DBD-RORγt fusion) in HEK293T cells (Homo sapiens (Human), UniProt P51449); assay: RORγt (full-length human) reporter assay, conditions A or B; assay type: cell-based; conditions: for IC50: HEK293T cells, read-out: RORγt (FL) Reporter Assay A or B, IC50; for inhibition at 3 µM / RORγt (FL) Reporter Assay A or B, % inhibition: 3 μM compound concentration (footnote *); for inhibition at 3 µM / inhibition at 1 µM / inhibition at 2 µM: read-out: RORγt (FL) Reporter Assay A or B, % inhibition; for inhibition at 1 µM: 1 μM compound concentration (footnote ***); for inhibition at 2 µM: 2 μM compound concentration
Outline: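 HEK293T cells expressing GAL4-DBD-RORγt fusion (96- or 384-well formats, DMEM/10% FBS) exposed to compound overnight (16–20 h). Firefly luciferase normalized to DMSO and saturating reference compound, then to Renilla; IC50 from dose curve, % inhibition versus DMSO.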

[2] = target: human RORγt ligand binding domain (RORγt LBD) (Homo sapiens (Human), UniProt P51449); assay: RORγt ThermoFluor assay
Sequence of human RORγt ligand binding domain (RORγt LBD) (P51449 other isoform, or with tags, fused parts or gaps): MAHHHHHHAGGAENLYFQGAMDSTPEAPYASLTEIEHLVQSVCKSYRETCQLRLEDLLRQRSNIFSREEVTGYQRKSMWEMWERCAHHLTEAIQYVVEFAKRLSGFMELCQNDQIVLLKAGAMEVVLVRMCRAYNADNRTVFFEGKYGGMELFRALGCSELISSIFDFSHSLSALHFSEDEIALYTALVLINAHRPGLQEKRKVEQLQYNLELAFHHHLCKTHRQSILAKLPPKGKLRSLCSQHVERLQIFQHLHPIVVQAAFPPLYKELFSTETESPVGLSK

Sequence of full-length human RORγt (GAL4-DBD-RORγt fusion) in HEK293T cells (P51449 other isoform, or with tags, fused parts or gaps): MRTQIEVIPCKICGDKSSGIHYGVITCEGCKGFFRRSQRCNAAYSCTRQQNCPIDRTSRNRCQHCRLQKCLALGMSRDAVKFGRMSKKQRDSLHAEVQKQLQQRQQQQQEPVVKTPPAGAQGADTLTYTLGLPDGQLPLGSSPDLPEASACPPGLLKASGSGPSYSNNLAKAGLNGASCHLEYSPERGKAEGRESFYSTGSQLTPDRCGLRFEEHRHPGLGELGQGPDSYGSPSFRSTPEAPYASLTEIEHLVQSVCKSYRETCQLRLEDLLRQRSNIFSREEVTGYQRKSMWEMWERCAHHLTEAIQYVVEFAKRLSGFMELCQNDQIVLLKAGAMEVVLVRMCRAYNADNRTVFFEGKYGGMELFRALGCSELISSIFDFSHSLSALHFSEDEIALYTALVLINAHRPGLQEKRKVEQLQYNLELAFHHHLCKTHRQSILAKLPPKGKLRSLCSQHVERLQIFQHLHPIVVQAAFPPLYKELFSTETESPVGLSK

Row | Structure (SMILES) | IC50 [1] | inhibition at 3 µM ([1]; HEK-293T) | Kd [2] | RORγt (FL) Reporter Assay A or B, % inhibition [1] | inhibition at 1 µM ([1]; HEK-293T) | inhibition at 6 µM ([1]; HEK-293T, 6 μM compound, read-out: RORγt (FL) Reporter Assay A or B, % inhibition @ 6 μM) | inhibition at 2 µM ([1]; HEK-293T)
1 | CCn1nc(C(=O)NC[C@H]2CC[C@H](S(C)(=O)=O)CC2)c(C)c1-c1cnc(CC(C(F)(F)F)C(F)(F)F)cc1OC(F)F [Example 23, 5-(4-(Difluoromethoxy)-6-(3,3,3-trifluoro-2-(trifluoromethyl)propyl)pyridin-3-yl)-1-ethyl-4-methyl-N-(((1r,4r)-4-(methylsulfonyl)cyclohexyl)methyl)-1H-pyrazole-3-carboxamide] | 15 nM | 100% | 2.5 nM | – | – | – | –
2 | CCn1nc(C(=O)NC[C@H]2CC[C@H](S(=O)(=O)NC(N)=O)CC2)c(Cl)c1-c1cnc(CC(C)(C)C(F)(F)F)cc1OC(F)F [Example 7, N-(((1r,4r)-4-(N-carbamoylsulfamoyl)cyclohexyl)methyl)-4-chloro-5-(4-(difluoromethoxy)-6-(3,3,3-trifluoro-2,2-dimethylpropyl)pyridin-3-yl)-1-ethyl-1H-pyrazole-3-carboxamide] | 240 nM | – | 2.9 nM | 100* % | – | – | –
3 | CCn1nc(C(=O)NC[C@]2(O)CC[C@@H](S(N)(=O)=O)CC2)c(Cl)c1-c1cnc(CC(C)(C)C(F)(F)F)cc1OC(F)F [Example 1, 4-Chloro-5-(4-(difluoromethoxy)-6-(3,3,3-trifluoro-2,2-dimethylpropyl)pyridin-3-yl)-1-ethyl-N-(((1s,4s)-1-hydroxy-4-sulfamoylcyclohexyl)methyl)-1H-pyrazole-3-carboxamide] | 110 nM | 116% | 11 nM | – | – | – | –
4 | CCn1nc(C(=O)NC[C@H]2CC[C@H](S(C)(=O)=O)CC2)c(Cl)c1-c1cnc(C[C@@H](C)C(F)(F)F)cc1OC (single isomer, unassigned) [Example 61, 4-Chloro-1-ethyl-5-(4-methoxy-6-((R*)-3,3,3-trifluoro-2-methylpropyl)pyridin-3-yl)-N-((1r,4r)-4-(methylsulfonyl)cyclohexyl)methyl)-1H-pyrazole-3-carboxamide] | 110 nM | – | 16 nM | – | – | – | 87%
5 | CCn1nc(C(=O)NC[C@]2(O)CC[C@@H](S(C)(=O)=O)CC2)c(Cl)c1-c1cnc(CC(C(F)(F)F)C(F)(F)F)cc1OC(F)F [Example 22, 4-Chloro-5-(4-(difluoromethoxy)-6-(3,3,3-trifluoro-2-(trifluoromethyl)propyl)pyridin-3-yl)-1-ethyl-N-(((1s,4s)-1-hydroxy-4-(methylsulfonyl)cyclohexyl)methyl)-1H-pyrazole-3-carboxamide] | 46 nM | – | 6.4 nM | – | 115% | – | –
6 | CCn1nc(C(=O)NC[C@H]2CC[C@H](S(N)(=O)=O)CC2)c(Cl)c1-c1cnc(CC(C)(C)C(F)(F)F)cc1OC(F)F [Example 11, 4-chloro-5-(4-(difluoromethoxy)-6-(3,3,3-trifluoro-2,2-dimethylpropyl)pyridin-3-yl)-1-ethyl-N-(((1r,4r)-4-sulfamoylcyclohexyl)methyl)-1H-pyrazole-3-carboxamide] | 23 nM | 108% | 1.4 nM | – | – | – | –
7 | CCn1nc(C(=O)NC[C@H]2CC[C@H](S(C)(=O)=O)CC2)c(Cl)c1-c1cnc(C[C@@H](C)C(F)(F)F)cc1OC(F)F (single isomer, unassigned) [Example 17, 4-Chloro-5-(4-(difluoromethoxy)-6-((R*)-3,3,3-trifluoro-2-methylpropyl)pyridin-3-yl)-1-ethyl-N-(((1r,4R)-4-(methylsulfonyl)cyclohexyl)methyl)-1H-pyrazole-3-carboxamide] | 34 nM | 125% | 4.1 nM | – | – | – | –
8 | CCn1nc(C(=O)NC[C@H]2CC[C@H](S(=O)(=O)NC(C)=O)CC2)c(Cl)c1-c1cnc(CC(C)(C)C(F)(F)F)cc1OC(F)F [Example 5, N-(((1r,4r)-4-(N-acetylsulfamoyl)cyclohexyl)methyl)-4-chloro-5-(4-(difluoromethoxy)-6-(3,3,3-trifluoro-2,2-dimethylpropyl)pyridin-3-yl)-1-ethyl-1H-pyrazole-3-carboxamide] | 430 nM | – | 8.7 nM | 79* % | – | – | –

Second part, led by results:

Row | IC50 [1] | inhibition at 3 µM ([1]; HEK-293T) | Kd [2] | RORγt (FL) Reporter Assay A or B, % inhibition [1] | inhibition at 1 µM ([1]; HEK-293T) | inhibition at 6 µM ([1]; HEK-293T, 6 μM compound, read-out: RORγt (FL) Reporter Assay A or B, % inhibition @ 6 μM) | Structure (SMILES) | inhibition at 2 µM ([1]; HEK-293T)
9 | 45 nM | 102% | 6.9 nM | – | – | – | CCn1nc(C(=O)NC[C@H]2CC[C@H](S(C)(=O)=O)CC2)c(C)c1-c1cnc(CC(C)(C)C(F)F)cc1OC(F)F [Example 41, 5-(6-(3,3-Difluoro-2,2-dimethylpropyl)-4-(difluoromethoxy)pyridin-3-yl)-1-ethyl-4-methyl-N-(((1r,4r)-4-(methylsulfonyl)cyclohexyl)methyl)-1H-pyrazole-3-carboxamide] | –
10 | 100 nM | 98% | 10 nM | – | – | – | Cn1nc(C(=O)NC[C@H]2CC[C@H](S(C)(=O)=O)CC2)c(Cl)c1-c1cnc(CC(C)(C)C(F)(F)F)cc1OC(F)F [Example 30, 4-Chloro-5-(4-(difluoromethoxy)-6-(3,3,3-trifluoro-2,2-dimethylpropyl)pyridin-3-yl)-1-methyl-N-(((1r,4r)-4-(methylsulfonyl)cyclohexyl)methyl)-1H-pyrazole-3-carboxamide] | –
11 | 35 nM | 97% | 3.2 nM | – | – | – | CCn1nc(C(=O)NC[C@@]2(O)CC[C@H](S(C)(=O)=O)C[C@@H]2O)c(C)c1-c1ccc(CC(C)(C)C(F)(F)F)nc1OC(F)F (relative stereo) [Example 51, 5-(2-(Difluoromethoxy)-6-(3,3,3-trifluoro-2,2-dimethylpropyl)pyridin-3-yl)-N-(((1S*,2S*,4S*)-1,2-dihydroxy-4-(methylsulfonyl)cyclohexyl)methyl)-1-ethyl-4-methyl-1H-pyrazole-3-carboxamide] | –
12 | 58 nM | – | 34 nM | – | 92% | – | CCn1nc(C(=O)NC[C@H]2CC[C@H](S(C)(=O)=O)CC2)c(C)c1-c1cnc(CCCC(F)(F)F)cc1OC(F)F [Example 34, 5-(4-(Difluoromethoxy)-6-(4,4,4-trifluorobutyl)pyridin-3-yl)-1-ethyl-4-methyl-N-(((1r,4r)-4-(methylsulfonyl)cyclohexyl)methyl)-1H-pyrazole-3-carboxamide] | –
13 | 240 nM | – | 11 nM | – | – | 88% | CCn1nc(C(=O)NC[C@H]2CC[C@H](S(C)(=O)=O)CC2)c(Cl)c1-c1cnc(CC(C)C(F)(F)F)cc1OC (stereo partly drawn) [Example 60, 4-Chloro-1-ethyl-5-(4-methoxy-6-(3,3,3-trifluoro-2-methylpropyl)pyridin-3-yl)-N-(((1r,4r)-4-(methylsulfonyl)cyclohexyl)methyl)-1H-pyrazole-3-carboxamide] | –
14 | 320 nM | – | 66 nM | – | 84% | – | CCn1nc(C(=O)NC[C@@]2(O)CC[C@H](S(C)(=O)=O)C[C@@H]2O)c(C)c1-c1cnc(CC(C)(C)C(F)F)cc1OC(F)F (stereo in doubt) [Example 43, 5-(6-(3,3-Difluoro-2,2-dimethylpropyl)-4-(difluoromethoxy)pyridin-3-yl)-N-(41S*,2S*,4S*)-1,2-dihydroxy-4-(methylsulfonyl)cyclohexyl)methyl)-1-ethyl-4-methyl-1H-pyrazole-3-carboxamide] | –
15 | 280 nM | – | 15 nM | – | – | – | CCn1nc(C(=O)NC[C@H]2CC[C@H](S(C)(=O)=O)CC2)c(Cl)c1-c1cnc(O[C@@H](C)C(F)(F)F)cc1OC [Example 64] | 39%
16 | 280 nM | 78% | 30 nM | – | – | – | CCc1cc(CC(C)(C)C(F)(F)F)ncc1-c1c(Cl)c(C(=O)NC[C@]2(O)CC[C@@H](S(C)(=O)=O)CC2)nn1CC [Example 55, 4-Chloro-1-ethyl-5-(4-ethyl-6-(3,3,3-trifluoro-2,2-dimethylpropyl)pyridin-3-yl)-N-(((1s,4s)-1-hydroxy-4-(methylsulfonyl)cyclohexyl)methyl)-1H-pyrazole-3-carboxamide] | –
17 | 210 nM | 82% | 35 nM | – | – | – | CCc1cc(CCC(C)(C)C)ncc1-c1c(Cl)c(C(=O)NC[C@]2(O)CC[C@@H](S(C)(=O)=O)CC2)nn1CC [Example 59, 4-Chloro-5-(6-(3,3-dimethylbutyl)-4-ethylpyridin-3-yl)-1-ethyl-N-(((1s,4s)-1-hydroxy-4-(methylsulfonyl)cyclohexyl)methyl)-1H-pyrazole-3-carboxamide] | –
18 | 14 nM | 88% | 17 nM | – | – | – | CCn1nc(C(=O)NC[C@H]2CC[C@H](S(C)(=O)=O)CC2)c(Cl)c1-c1cnc(CC(C)(C)C(F)(F)F)cc1C(F)F [Example 26, 4-Chloro-5-(4-(difluoromethyl)-6-(3,3,3-trifluoro-2,2-dimethylpropyl)pyridin-3-yl)-1-ethyl-N-(((1r,4r)-4-(methylsulfonyl)cyclohexyl)methyl)-1H-pyrazole-3-carboxamide] | –
19 | 11 nM | 86% | 0.35 nM | – | – | – | CCn1nc(C(=O)NC[C@H]2CC[C@H](S(C)(=O)=O)CC2)c(Cl)c1-c1ccc(CC(C)(C)C(F)(F)F)nc1OC(F)F [Example 45, 4-Chloro-5-(2-(difluoromethoxy)-6-(3,3,3-trifluoro-2,2-dimethylpropyl)pyridin-3-yl)-1-ethyl-N-(((1r,4r)-4-(methylsulfonyl)cyclohexyl)methyl)-1H-pyrazole-3-carboxamide] | –
